Results reported in patent publication US12617813B2, “Glycosylated histone deacetylase inhibitors and methods of making and using the same” (Georgia Tech Research Corporation, priority 2020, dated 2026).

Experiments:
HDAC2 = HDAC2 (Homo sapiens, UniProt Q92769); experiment: HDAC inhibition, HDAC2; format: biochemical
HDAC8 = target: T1, HDAC8 (Homo sapiens, UniProt Q9BY41); experiment: HDAC inhibition, HDAC8; format: biochemical
T1 sequence (Q9BY41 1-377): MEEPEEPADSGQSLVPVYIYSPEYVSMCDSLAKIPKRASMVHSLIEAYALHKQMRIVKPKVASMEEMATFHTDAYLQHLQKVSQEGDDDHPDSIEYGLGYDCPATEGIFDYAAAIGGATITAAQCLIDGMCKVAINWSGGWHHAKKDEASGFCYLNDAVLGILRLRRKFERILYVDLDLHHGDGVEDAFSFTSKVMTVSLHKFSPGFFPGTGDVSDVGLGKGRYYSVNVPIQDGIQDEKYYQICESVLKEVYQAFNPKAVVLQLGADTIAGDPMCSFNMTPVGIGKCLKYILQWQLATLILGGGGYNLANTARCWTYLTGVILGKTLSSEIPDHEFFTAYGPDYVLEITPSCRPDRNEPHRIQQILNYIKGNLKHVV

HDAC1 = HDAC1 (Homo sapiens, UniProt Q13547); experiment: HDAC inhibition, HDAC1; format: biochemical
Sequence of HDAC1 (Q13547 whole entry): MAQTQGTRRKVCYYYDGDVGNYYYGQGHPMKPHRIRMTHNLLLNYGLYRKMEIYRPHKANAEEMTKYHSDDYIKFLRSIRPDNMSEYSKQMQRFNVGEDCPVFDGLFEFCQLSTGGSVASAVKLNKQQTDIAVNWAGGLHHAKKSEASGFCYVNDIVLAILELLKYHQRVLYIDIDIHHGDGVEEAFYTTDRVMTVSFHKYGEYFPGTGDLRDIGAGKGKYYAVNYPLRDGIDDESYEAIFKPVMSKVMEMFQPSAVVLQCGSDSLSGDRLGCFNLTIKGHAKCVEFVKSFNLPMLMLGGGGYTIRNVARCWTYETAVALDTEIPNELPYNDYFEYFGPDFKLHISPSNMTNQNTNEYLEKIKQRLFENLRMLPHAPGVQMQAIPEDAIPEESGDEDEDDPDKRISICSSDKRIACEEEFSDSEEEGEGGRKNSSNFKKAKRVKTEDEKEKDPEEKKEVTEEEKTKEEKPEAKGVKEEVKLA

HDAC6 = target: T2, HDAC6 (Homo sapiens, UniProt Q9UBN7); experiment: HDAC inhibition, HDAC6; format: biochemical
T2 sequence (Q9UBN7 1-1215): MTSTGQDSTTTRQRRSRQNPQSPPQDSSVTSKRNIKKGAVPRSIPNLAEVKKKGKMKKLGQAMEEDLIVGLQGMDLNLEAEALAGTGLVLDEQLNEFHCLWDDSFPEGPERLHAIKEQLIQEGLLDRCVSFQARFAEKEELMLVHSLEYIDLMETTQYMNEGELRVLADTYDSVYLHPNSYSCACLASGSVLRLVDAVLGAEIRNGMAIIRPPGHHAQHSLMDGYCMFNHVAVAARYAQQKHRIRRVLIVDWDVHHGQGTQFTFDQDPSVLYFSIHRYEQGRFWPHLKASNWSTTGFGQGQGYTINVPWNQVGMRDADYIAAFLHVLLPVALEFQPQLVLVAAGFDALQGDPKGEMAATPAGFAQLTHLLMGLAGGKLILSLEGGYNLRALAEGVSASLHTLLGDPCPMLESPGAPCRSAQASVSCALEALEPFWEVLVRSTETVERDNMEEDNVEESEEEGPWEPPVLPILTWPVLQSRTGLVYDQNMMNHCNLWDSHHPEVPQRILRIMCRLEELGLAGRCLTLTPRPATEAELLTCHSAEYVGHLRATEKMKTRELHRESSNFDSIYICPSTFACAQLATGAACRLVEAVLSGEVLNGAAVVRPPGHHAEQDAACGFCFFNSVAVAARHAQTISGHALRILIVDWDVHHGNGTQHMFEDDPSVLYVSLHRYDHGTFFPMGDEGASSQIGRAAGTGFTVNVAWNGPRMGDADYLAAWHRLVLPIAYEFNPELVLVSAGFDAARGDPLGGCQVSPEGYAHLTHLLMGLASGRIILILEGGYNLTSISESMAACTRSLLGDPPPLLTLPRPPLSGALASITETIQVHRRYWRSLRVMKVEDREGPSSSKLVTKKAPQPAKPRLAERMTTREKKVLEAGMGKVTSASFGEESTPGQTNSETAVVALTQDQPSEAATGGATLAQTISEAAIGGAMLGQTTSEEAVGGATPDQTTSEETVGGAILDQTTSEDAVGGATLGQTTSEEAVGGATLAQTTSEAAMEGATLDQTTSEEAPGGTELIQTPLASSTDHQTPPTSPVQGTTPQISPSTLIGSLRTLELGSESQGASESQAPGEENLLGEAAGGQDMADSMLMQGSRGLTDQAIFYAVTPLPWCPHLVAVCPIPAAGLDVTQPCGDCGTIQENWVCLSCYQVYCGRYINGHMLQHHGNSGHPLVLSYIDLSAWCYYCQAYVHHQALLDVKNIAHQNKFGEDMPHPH

A549 = experiment: Cell growth inhibition, A549; format: cell-based; details: Homo sapiens, NI = No Inhibition at 100 uM
VERO = experiment: Cell growth inhibition, VERO; format: cell-based; details: Chlorocebus sabaeus, NI = No Inhibition at 100 uM
Hep-G2 = experiment: Cell growth inhibition, Hep-G2; format: cell-based; details: Homo sapiens, HepG2, NI = No Inhibition at 100 uM

Sequence of HDAC2 (Q92769 whole entry): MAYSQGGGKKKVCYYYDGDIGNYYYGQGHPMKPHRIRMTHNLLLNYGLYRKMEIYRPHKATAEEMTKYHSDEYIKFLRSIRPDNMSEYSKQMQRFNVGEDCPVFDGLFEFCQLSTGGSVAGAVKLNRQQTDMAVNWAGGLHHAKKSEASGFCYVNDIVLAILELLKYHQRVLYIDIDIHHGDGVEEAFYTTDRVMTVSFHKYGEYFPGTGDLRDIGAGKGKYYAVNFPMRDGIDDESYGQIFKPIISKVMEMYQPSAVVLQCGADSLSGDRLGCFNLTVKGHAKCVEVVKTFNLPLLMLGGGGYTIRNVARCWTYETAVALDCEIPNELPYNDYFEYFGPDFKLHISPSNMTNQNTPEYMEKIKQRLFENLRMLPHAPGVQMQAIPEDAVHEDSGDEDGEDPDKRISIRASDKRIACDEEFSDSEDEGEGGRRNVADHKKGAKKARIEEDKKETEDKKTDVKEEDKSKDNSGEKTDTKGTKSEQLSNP

IC50 (HDAC2) [nM]	IC50 (HDAC8) [nM]	IC50 (HDAC1) [nM]	IC50 (HDAC6) [nM]	IC50 (A549) [µM]	IC50 (Hep-G2) [µM]	Compound	IC50 (VERO) [µM]
–	–	–	–	> 100	10.1 ± 1.2	CC(=O)OC[C@H]1O[C@H](Oc2ccc(-c3cn(CCCCCCC(=O)NO)nn3)cc2)[C@H](OC(C)=O)[C@@H](OC(C)=O)[C@@H]1OC(C)=O [Compound 1]	> 100
–	–	–	–	77.2 ± 4.3	6.7 ± 1.6	O=C(CCCCCCn1cc(-c2ccc3cc(O[C@H]4O[C@H](CO)[C@@H](O)[C@H](O)[C@H]4O)ccc3c2)nn1)NO [Compound 3]	34.1 ± 3
–	–	–	–	64.7 ± 7	8 ± 0.9	CC(=O)OC[C@H]1O[C@H](Oc2ccc(-c3cn(CCCCCCC(=O)NO)nn3)cc2)[C@@H](OC(C)=O)[C@@H](OC(C)=O)[C@@H]1OC(C)=O [Compound 4]	77.4 ± 5.6
–	–	–	–	> 100	22.3 ± 2	O=C(CCCCCCn1cc(-c2ccc(O[C@H]3O[C@H](CO)[C@@H](O)[C@H](O)[C@@H]3O)cc2)nn1)NO [Compound 5]	65.5 ± 8.3
–	–	–	–	39.6 ± 0.6	7.4 ± 0.9	CC(=O)OC[C@H]1O[C@H](Oc2ccc3cc(-c4cn(CCCCCCC(=O)NO)nn4)ccc3c2)[C@@H](OC(C)=O)[C@@H](OC(C)=O)[C@@H]1OC(C)=O [Compound 6]	19.2 ± 0.9
–	–	–	–	20.1 ± 1.1	7.5 ± 0.8	O=C(CCCCCCn1cc(-c2ccc3cc(O[C@H]4O[C@H](CO)[C@@H](O)[C@H](O)[C@@H]4O)ccc3c2)nn1)NO [Compound 7]	33.6 ± 5.5
–	–	–	–	> 100	66.1	O=C(/C=C/c1ccc2cc(O[C@H]3O[C@H](CO)[C@@H](O)[C@H](O)[C@H]3O)ccc2c1)NO [Compound 8]	82.1
–	–	–	–	66.7 ± 16.1	13.5 ± 2.7	O=C(CCCCCn1cc(-c2ccc3cc(O[C@H]4O[C@H](CO)[C@@H](O)[C@H](O)[C@@H]4O)ccc3c2)nn1)NO [Compound 9]	> 100
–	–	–	–	> 100	42.8 ± 0.5	O=C(CCCCCn1cc(-c2ccc(O[C@H]3O[C@H](CO)[C@@H](O)[C@H](O)[C@@H]3O)cc2)nn1)NO [Compound 10]	> 100
–	–	–	–	> 100	78.5 ± 11.6	O=C(/C=C/c1ccc2cc(O[C@H]3O[C@H](CO)[C@@H](O)[C@H](O)[C@@H]3O)ccc2c1)NO [Compound 11]	> 100
–	–	–	–	> 100	45.3 ± 5.9	O=C(/C=C/c1ccc(O[C@H]2O[C@H](CO)[C@@H](O)[C@H](O)[C@H]2O)cc1)NO [Compound 12]	> 100
–	–	–	–	33.7 ± 1.8	9.6 ± 3.4	C[C@H]1C[C@@H](N(C)C)[C@H](O)C(Oc2ccc(-c3cn(CCCCCCC(=O)NO)nn3)cc2)O1 (stereo partly drawn) [Compound 13]	76.4
–	–	–	–	59.9	–	Nc1ccc(F)cc1NC(=O)CCCCCCn1cc(-c2ccc(O[C@H]3O[C@H](CO)[C@@H](O)[C@H](O)[C@H]3O)cc2)nn1 [Compound 14]	> 100
–	–	–	–	> 100	~100	Nc1cc(F)ccc1NC(=O)CCCCCCn1cc(-c2ccc(O[C@H]3O[C@H](CO)[C@@H](O)[C@H](O)[C@H]3O)cc2)nn1 [Compound 15]	> 100
–	–	–	–	49.5	> 100	Nc1ccc(-c2cccs2)cc1NC(=O)CCCCCCn1cc(-c2ccc(O[C@H]3O[C@H](CO)[C@@H](O)[C@H](O)[C@H]3O)cc2)nn1 [Compound 16]	> 100
146	3590	68.2	6.45	–	–	O=C(CCCCCn1cc(-c2ccc(O[C@H]3O[C@H](CO)[C@@H](O)[C@H](O)[C@@H]3O)cc2)nn1)NO [STR-II-29]	–
47.1	1970	26.8	2.03	–	–	O=C(CCCCCn1cc(-c2ccc3cc(O[C@H]4O[C@H](CO)[C@@H](O)[C@H](O)[C@@H]4O)ccc3c2)nn1)NO [STR-II-35]	–
10.4	319	3.28	0.719	–	–	O=C(CCCCCCn1cc(-c2ccc3cc(O[C@H]4O[C@H](CO)[C@@H](O)[C@H](O)[C@@H]4O)ccc3c2)nn1)NO [STR-II-36]	–
1030	461	427	16.5	–	–	O=C(/C=C/c1ccc2cc(O[C@H]3O[C@H](CO)[C@@H](O)[C@H](O)[C@H]3O)ccc2c1)NO [STR-V-115]	–
6500	1820	3840	75.4	–	–	O=C(/C=C/c1ccc(O[C@H]2O[C@H](CO)[C@@H](O)[C@H](O)[C@H]2O)cc1)NO [STR-V-121]	–
27.2	1960	12.2	1.05	–	–	O=C(CCCCCCn1cc(-c2ccc(O)cc2)nn1)NO [STR-V-183, N-hydroxy-7-(4-(4-hydroxyphenyl)-11-1-1,2,3-triazol-1-yl)heptanamide, reference compound]	–

Compound	IC50 (HDAC2) [nM]	IC50 (HDAC8) [nM]	IC50 (HDAC1) [nM]	IC50 (HDAC6) [nM]	IC50 (A549) [µM]	IC50 (Hep-G2) [µM]	IC50 (VERO) [µM]
CC(=O)OC[C@H]1OC(Oc2ccc(-c3cn(CCCCCCC(=O)NO)nn3)cc2)C(OC(C)=O)[C@@H](OC(C)=O)[C@@H]1OC(C)=O (stereo in doubt) [STR-V-176, (2R,3R,4S,5R,6S)-2-(acetoxymethyl)-6-(4-(1-(7-(hydroxyamino)-7-oxoheptyl)-1H-1,2,3-triazol-4-yl)phenoxy)tetrahydro-2H-pyran-3,4,5-triyl triacetate]	4.2	271	1.43	1.05	–	–	–
CC(=O)OC[C@H]1OC(Oc2ccc3cc(-c4cn(CCCCCCC(=O)NO)nn4)ccc3c2)C(OC(C)=O)[C@@H](OC(C)=O)[C@@H]1OC(C)=O (stereo in doubt) [STR-V-177, (2R,3R,4S,5R,6S)-2-(acetoxymethyl)-6-((6-(1-(7-(hydroxyamino)-7-oxoheptyl)-1H-1,2,3-triazol-4-yl)naphthalen-2-yl)oxy)tetrahydro-2H-pyran-3,4,5-triyl triacetate]	13.2	718	2.2	1.65	–	–	–
O=C(CCCCCCn1cc(-c2ccc(O[C@H]3O[C@H](CO)[C@@H](O)[C@H](O)[C@H]3O)cc2)nn1)NO [Compound 2]	–	–	–	–	100 ± 0.1	10.4 ± 0.6	76.4 ± 0.2
(2R,3R,4S,5R,6R)-2-(acetoxymethyl)-6-(4-(1-(7-(((tert-butyldiphenylsilyl)oxy)-amino)-7-oxoheptyl)-1H-1,2,3-triazol-4-yl)phenoxy)tetrahydro-2H-pyran-3,4,5-triyl triacetate [STR-V-167]	66.4	311	31.8	2.61	–	–	–
(2S,3R,4S,6R)-4-(dimethylamino)-2-(4-(1-(7-(hydroxyamino)-7-oxoheptyl)-1H-1,2,3-triazol-4-yl)phenoxy)-6-methyltetrahydro-2H-pyran-3-yl acetate [STR-V-165]	27.5	806	10.3	5.22	–	–	–
